Measured values taken from article PMC10065799, “High-throughput profiling of sequence recognition by tyrosine kinases and SH2 domains using bacterial peptide display” (eLife, 2023).

How the values were obtained:
EPHB2 kinase domain [1] = test: ADP-Quest continuous fluorimetric kinase assay (initial rates of consensus peptides); assay type: biochemical, human; settings: peptide 100 μM, kinase 10–50 nM; Figure 2C
Excerpt: A fluorescence-based assay from Eurofins (ADP Quest) was used to measure the Michaelis-Menten kinetic parameters for phosphorylation of the consensus peptides by purified tyrosine kinase domains. In this assay, ADP production as a result of kinase activity is coupled to the production of resorufin, a fluorophore that emits signal at 590 nm. For all experiments, the assay reactions were set up as described in the provided assay kit protocol, in a 384 well plate format. The peptide solutions were serially diluted in 100 mM Tris, pH 8.0, and the kinases were diluted to 50 nM in buffer (10 mM HEPES, 100 mM NaCl, 1 mM TCEP, 5 mM MgCl2, 10% (v/v) glycerol). The final reaction mixtures contained 10 nM of kinase with 100 μM of ATP. […] Phosphorylation reaction progress was monitored by measuring fluorescence at excitation 530 nm and emission 590 nm every 2 min at 37 °C on a plate reader (BioTek Synergy Neo 2). The fluorescence units (RFU) were converted to μM ADP by comparison to a standard curve, and the initial rates were extracted from the linear regime of the reaction progress curves. Initial rates were also measured for samples containing each kinase but lacking a peptide substrate, to account for background ATP hydrolysis. This background rate was subtracted from the rates measured in the presence of peptide. […]

c-Src kinase domain [2] = target: T1, c-Src kinase domain (Homo sapiens, UniProt P12931); test: ADP-Quest continuous fluorimetric kinase assay (Michaelis-Menten parameters and initial rates); assay type: biochemical; settings: c-Src kinase domain 10 nM, 100 μM ATP, 37 °C, three to five replicates, error = standard error of global Michaelis-Menten fit
c-Abl kinase domain [3] = target: T2, c-Abl kinase domain (Mus musculus, UniProt P00520); test: as above; assay type: biochemical; settings: c-Abl kinase domain 10 nM, 100 μM ATP, 37 °C, three to five replicates, error = standard error of global Michaelis-Menten fit
T2 sequence (P00520 242-493 limits assumed): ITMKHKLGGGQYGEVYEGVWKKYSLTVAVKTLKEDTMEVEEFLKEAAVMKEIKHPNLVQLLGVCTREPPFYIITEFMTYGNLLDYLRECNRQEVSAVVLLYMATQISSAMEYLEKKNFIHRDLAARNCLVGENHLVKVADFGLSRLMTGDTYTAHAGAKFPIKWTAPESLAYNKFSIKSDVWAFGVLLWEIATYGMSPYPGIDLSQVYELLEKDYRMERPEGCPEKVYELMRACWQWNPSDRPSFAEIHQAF

c-Src kinase domain [4] = target: T1, c-Src kinase domain; test: RP-HPLC assay to measure peptide phosphorylation kinetics; assay type: biochemical; settings: purified peptide substrate
Protocol: To validate the enrichment scores observed in the c-Src screening data, the phosphorylation rates were measured in vitro with the purified catalytic domain of c-Src and synthetic 11-residue peptides derived from sequences in the pTyr-Var library. […] Reactions were initiated by adding 1 mM ATP. At various time points, 100 μL aliquots were removed and quenched by the addition of EDTA to a final concentration of 25 mM. Each time point sample was analyzed by analytical RP-HPLC, monitoring absorbance at 214 nm. Forty μL of each time point was injected onto a C18 column (ZORBAX 300 SB-C18, 5 μm, 4.6x150 mm). The solvent system used was water with 0.1% trifluoroacetic acid (solvent A) and acetonitrile with 0.1% trifluoroacetic acid (solvent B). […] The fractional product peak area was plotted as a function of reaction time, and the initial linear regime of this plot was fitted to a straight line to determine a reaction rate. Rates were corrected for substrate and enzyme concentration. Reactions were done in triplicate or quadruplicate.

FGFR3 kinase domain = test: pTyr-Var library bacterial peptide display kinase screen (enrichment scores); assay type: biochemical, human
Grb2 SH2 domain = test: pTyr-Var library SH2 domain screen with SH2-dynabeads (enrichment scores)
Fyn kinase domain = test: pTyr-Var library bacterial peptide display kinase screen (enrichment scores); assay type: biochemical, human;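 for Fyn hit?: Hit requires p below 0.05 and at least twofold variant vs reference change plus filters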
MERTK kinase domain = test: as above; assay type: biochemical, human
AncSZ kinase domain = test: as above; assay type: biochemical
EPHB2 kinase domain [5] = test: as above; assay type: biochemical, human
Hck kinase domain = test: as above; assay type: biochemical, human
Jak2 = test: as above; assay type: biochemical, human
[6] = tested on: 4G10 Platinum pan-phosphotyrosine antibody; test: Phosphorylated pTyr-Var library selection with biotinylated pan-phosphotyrosine antibody; assay type: binding, mouse; settings: enrichment score, sheet SH2-vs-peptide
Fes = test: pTyr-Var library bacterial peptide display kinase screen (enrichment scores); assay type: biochemical
EPHB1 kinase domain = test: as above; assay type: biochemical, human
c-Abl kinase domain [7] = target: T2, c-Abl kinase domain; test: as above; assay type: biochemical
SHP2 C-SH2 domain = test: pTyr-Var library SH2 domain screen with SH2-dynabeads (enrichment scores)
c-Src kinase domain [8] = target: T1, c-Src kinase domain; test: pTyr-Var library bacterial peptide display kinase screen (enrichment scores); assay type: biochemical;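 for AncSZ hit?: Hit requires p below 0.05 and at least twofold variant vs reference change plus filters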;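 for c-Abl hit?: Hit requires p below 0.05 and at least twofold variant vs reference change plus filters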;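 for c-Src hit?: Hit requires p below 0.05 and at least twofold variant vs reference change plus filters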
Fer kinase domain = test: as above; assay type: biochemical, mouse
c-Src SH2 domain = c-Src SH2 domain (Homo sapiens, UniProt P12931); test: pTyr-Var library SH2 domain screen with SH2-dynabeads (enrichment scores); settings: sheet c-Src
FGFR1 kinase domain = test: pTyr-Var library bacterial peptide display kinase screen (enrichment scores); assay type: biochemical, human
[9] = mean of log2(variant) minus mean of log2(reference)
[10] = mean of log2 enrichment of variant peptide, n = 5
[11] = pTyr-Var library, variant peptide enrichment, mean of n = 5
[12] = mean of log2 of enrichment over R1-R4
[13] = pTyr-Var library, enrichment score, replicate 1
[14] = pTyr-Var library, enrichment score, replicate 3
[15] = pTyr-Var library, enrichment score, replicate 4
[16] = variant versus reference peptide
[17] = variant versus reference peptide, significant hit TRUE/FALSE
[18] = mean of log2 enrichment of variant peptide, n = 4
[19] = pTyr-Var library, variant peptide enrichment, mean of n = 4

“Ac-GPDEPIYAVPPIKKKG-NH2 [Abl Consensus, c-Abl consensus substrate peptide from X5-Y-X5 screen]” was tested, and the “phosphorylation of consensus peptide by EPHB2 (initial rate relative to cognate consensus)” value (EPHB2 kinase domain [1]) was “efficiently phosphorylated”, the Km (c-Src kinase domain [2]) was 159 ± 31 µM and the kcat (c-Src kinase domain [2]) was 2.0±0.2 s^–1. It also gave a Km (c-Abl kinase domain [3]) of 6 ± 2 µM and a kcat (c-Abl kinase domain [3]) of 3.0±0.2 s^–1.

For Ac-VASSLYDILAR-NH2 [GLB1_Y294], the “Phosphorylation Rate” value (c-Src kinase domain [4]) was 0.892 s⁻¹.

With ATVQNYLPKCI [A2M_Y817_L815Q] the difference (FGFR3 kinase domain; [9]) was -0.3951, the “mean of log2(variant)” value (FGFR3 kinase domain; [10]) was -1.056 and the var. mean (FGFR3 kinase domain; [11]) was 0.4887. For the same substance, the difference (Grb2 SH2 domain; Grb2 SH2, mean of log2(variant) minus mean of log2(reference)) was -0.167, the “mean of log2(variant)” value (Grb2 SH2 domain; Grb2 SH2, mean of log2 enrichment of variant, R1-R3) was -0.3239 and the “hit?” value (Grb2 SH2 domain; Grb2 SH2, variant versus reference significant hit call) was “FALSE”. The var. mean (Grb2 SH2 domain; variant peptide enrichment score, Grb2 SH2, mean of R1-R3) was 0.8266, the “Fyn mean of log2(enrichment)” value (Fyn kinase domain; [12]) was -1.466 and the “Fyn enrich. R1” value (Fyn kinase domain; [13]) was 0.4872. For the same substance, the “Fyn enrich. R3” value (Fyn kinase domain; [14]) was 0.3635, the “Fyn enrich. R4” value (Fyn kinase domain; [15]) was 0.2869 and the “Fyn difference (mean log2 variant - mean log2 reference)” value (Fyn kinase domain; [16]) was -0.247. The “Fyn hit?” value (Fyn kinase domain; [17]) was “FALSE”, the difference (MERTK kinase domain; [9]) was -0.01109 and the “mean of log2(variant)” value (MERTK kinase domain; [18]) was -1.438. The var. mean (MERTK kinase domain; [19]) was 0.3721, the “AncSZ mean of log2(enrichment)” value (AncSZ kinase domain; mean of log2 of enrichment over R1-R5) was -0.7038 and the “AncSZ enrich. R1” value (AncSZ kinase domain; [13]) was 0.6587. The “AncSZ enrich. R3” value (AncSZ kinase domain; [14]) was 0.7943, the “AncSZ enrich. R4” value (AncSZ kinase domain; [15]) was 0.5045 and the “AncSZ enrich. R5” value (AncSZ kinase domain; pTyr-Var library, enrichment score, replicate 5) was 0.4741. The “AncSZ difference (mean log2 variant - mean log2 reference)” value (AncSZ kinase domain; [16]) was -0.2377, the “AncSZ hit?” value (AncSZ kinase domain; [17]) was “FALSE” and the difference (EPHB2 kinase domain [5]; [9]) was -0.2469. For the same substance, the “mean of log2(variant)” value (EPHB2 kinase domain [5]; [18]) was -1.144, the var. mean (EPHB2 kinase domain [5]; [19]) was 0.4818 and the “Hck mean of log2(enrichment)” value (Hck kinase domain; mean of log2(variant) / mean of log2(reference), R1-R4) was 0.3462. For the same substance, the “Hck enrich. R1” value (Hck kinase domain; [13]) was 0.3734, the “Hck enrich. R3” value (Hck kinase domain; [14]) was 0.3895 and the “Hck enrich. R4” value (Hck kinase domain; [15]) was 0.2207. The “Hck difference (variant - reference)” value (Hck kinase domain; [16]) was -0.2528, the “Hck hit?” value (Hck kinase domain; [17]) was “FALSE” and the “Jak2 mean of log2(enrichment)” value (Jak2; mean of log2 of enrichment over R1-R3) was -0.5861. The “Jak2 enrich. R1” value (Jak2; [13]) was 0.5921, the “Jak2 enrich. R3” value (Jak2; [14]) was 0.5314 and the “Jak2 difference (mean log2 variant - mean log2 reference)” value (Jak2; [16]) was -0.3549. For the same substance, the “Jak2 hit?” value (Jak2; [17]) was “FALSE”, the “4G10 (mean)” value [6] was 0.5753 and the “Fes mean of log2(enrichment)” value (Fes; mean of log2 of enrichment over R1-R6) was -0.2803. The “Fes difference (mean log2 variant - mean log2 reference)” value (Fes; [16]) was -0.2401, the difference (EPHB1 kinase domain; [9]) was -0.7634 and the “mean of log2(variant)” value (EPHB1 kinase domain; [18]) was -1.369. For the same substance, the var. mean (EPHB1 kinase domain; [19]) was 0.3903, the “c-Abl mean of log2(enrichment)” value (c-Abl kinase domain [7]; [12]) was -0.576 and the “c-Abl enrich. R1” value (c-Abl kinase domain [7]; [13]) was 0.4837. The “c-Abl enrich. R3” value (c-Abl kinase domain [7]; [14]) was 0.713, the “c-Abl enrich. R4” value (c-Abl kinase domain [7]; [15]) was 0.6552 and the “c-Abl hit?” value (c-Abl kinase domain [7]; [17]) was “FALSE”. For the same substance, the difference (SHP2 C-SH2 domain; SHP2-C SH2, mean of log2(variant) minus mean of log2(reference)) was -0.37, the “mean of log2(variant)” value (SHP2 C-SH2 domain; SHP2-C SH2, mean of log2 enrichment of variant, R1-R3) was -0.8263 and the “hit?” value (SHP2 C-SH2 domain; SHP2-C SH2, variant versus reference significant hit call) was “FALSE”. For the same substance, the var. mean (SHP2 C-SH2 domain; variant peptide enrichment score, SHP2-C SH2, mean of R1-R3) was 0.5806, the “c-Src mean of log2(enrichment)” value (c-Src kinase domain [8]; [12]) was -1.474 and the “c-Src enrich. R1” value (c-Src kinase domain [8]; [13]) was 0.3685. For the same substance, the “c-Src enrich. R3” value (c-Src kinase domain [8]; [14]) was 0.3322, the “c-Src enrich. R4” value (c-Src kinase domain [8]; [15]) was 0.416 and the “c-Src difference (mean log2 variant - mean log2 reference)” value (c-Src kinase domain [8]; [16]) was -0.08063. For the same substance, the “c-Src hit?” value (c-Src kinase domain [8]; [17]) was “FALSE”, the “Fer mean of log2(enrichment)” value (Fer kinase domain; [12]) was -1.311 and the “Fer enrich. R1” value (Fer kinase domain; [13]) was 0.4446. The “Fer enrich. R3” value (Fer kinase domain; [14]) was 0.4557, the “Fer enrich. R4” value (Fer kinase domain; [15]) was 0.3278 and the “Fer difference (mean log2 variant - mean log2 reference)” value (Fer kinase domain; [16]) was -0.03599. For the same substance, the “Fer hit?” value (Fer kinase domain; [17]) was “FALSE”, the difference (c-Src SH2 domain; [9]) was -0.03544 and the “mean of log2(variant)” value (c-Src SH2 domain; mean of log2 enrichment of variant peptide, R1-R3) was -1.014. For the same substance, the var. mean (c-Src SH2 domain; variant peptide, mean of R1-R3) was 0.4965, the difference (FGFR1 kinase domain; [9]) was -0.151 and the “mean of log2(variant)” value (FGFR1 kinase domain; [10]) was -1.149. For the same substance, the var. mean (FGFR1 kinase domain; [11]) was 0.4624.
